Here are results for 1 molecule from BindingDB's records for doi:10.1124/jpet.105.085217 (Imperial College, 2005).

SMILES strings stand for the structures.

This test concerns the target T1, Glucocorticoid receptor (Homo sapiens, UniProt P04150).
T1 sequence (P04150 whole entry): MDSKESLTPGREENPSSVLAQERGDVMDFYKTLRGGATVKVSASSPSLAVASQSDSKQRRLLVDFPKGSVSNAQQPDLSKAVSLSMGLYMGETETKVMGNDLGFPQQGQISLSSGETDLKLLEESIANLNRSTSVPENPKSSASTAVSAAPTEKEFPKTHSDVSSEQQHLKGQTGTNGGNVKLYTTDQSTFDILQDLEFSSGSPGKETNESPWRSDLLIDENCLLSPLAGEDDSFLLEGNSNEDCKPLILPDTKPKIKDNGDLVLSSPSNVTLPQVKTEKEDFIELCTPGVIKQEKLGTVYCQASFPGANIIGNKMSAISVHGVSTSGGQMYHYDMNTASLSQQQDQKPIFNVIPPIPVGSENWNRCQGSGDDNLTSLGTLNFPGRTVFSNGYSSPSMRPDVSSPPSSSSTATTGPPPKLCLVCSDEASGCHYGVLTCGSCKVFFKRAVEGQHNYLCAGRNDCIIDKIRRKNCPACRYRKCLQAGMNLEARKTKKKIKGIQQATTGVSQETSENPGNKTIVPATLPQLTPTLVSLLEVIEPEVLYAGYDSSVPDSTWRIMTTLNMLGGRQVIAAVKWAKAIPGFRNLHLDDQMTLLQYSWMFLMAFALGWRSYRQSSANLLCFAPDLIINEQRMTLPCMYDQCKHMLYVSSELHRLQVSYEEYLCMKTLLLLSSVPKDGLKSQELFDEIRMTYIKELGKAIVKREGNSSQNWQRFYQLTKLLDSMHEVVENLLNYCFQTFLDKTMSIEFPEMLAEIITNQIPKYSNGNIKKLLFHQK

For the molecule `C[C@]12C=CC(=O)C=C1CC[C@@H]1[C@@H]2[C@@H](O)C[C@@]2(C)[C@H]1C[C@H]1O[C@@H](C3CCCCC3)O[C@]12C(=O)CO` [desisobutyryl-ciclesonide], affinity was put at a Ki of 310 pM. This counts as sub-nanomolar.
